According to patent US20040186098A1 (Amgen Inc., priority 1997, published 2004):

What was measured:
[1] = system: hair cells in rat organ of Corti explant; settings: Compound I 0.05 pM, pretreatment at plating, cisplatin exposure day 2 to day 4; untreated 17%
outer hair cells (OHC) = assay: Intramiddle ear neomycin-induced ototoxicity, compound given into the middle ear, outer hair cell loss; format: in vivo, guinea pig; settings: for hair cells (protected) after neomycin: 5 mg neomycin, 14 days after second surgery
Procedure: Twenty guinea pigs used in this study were divided into two groups: 10 animals received 10 ng and 10 received 1 ng of the sensorineurotrophic compound.
Sensorineurotrophic compound stock A: A stock solution of sensorineurotrophic compound at 1 mg/10 ml in 100% ethanol was prepared and then diluted and mixed in Intralipid at 10 ng/100 μl.
Sensorineurotrophic compound stock B: A stock solution of sensorineurotrophic compound at 1 mg/100 ml in 100% ethanol was prepared and then diluted and mixed in 20% Intralipid at 1 ng/100 μl.
Animals were anesthetized with an intramuscular injection of a mixture of ketamine (80 mg/kg) and xylazine (4 mg/kg). Through a post-auricular incision, the right bulla was identified. A hole was drilled to open the middle ear cavity (care was taken not to injure the tympanic annulus or ossicles). A piece of gelfoam (˜2 mm^3) soaked with the sensorineurotrophic compound solution was inserted into the round window niche. The remaining sensorineurotrophic compound solution (˜100 μl) then was injected into the middle ear cavity. In the 10 ng dose group, 100 μl of sensorineurotrophic compound stock A was administered; and in the 1 ng dose group, 100 μl of sensorineurotrophic compound stock B was administered to the middle ear cavity. The hole was covered with a piece of clear plastic sheet which was stuck on the skull with a superglue. The incision was closed with clips. The same procedure was performed at the left bulla, but 100 μl of vehicle solution instead of sensorineurotrophic compound solution was administered. The animals were maintained in the prone position until they woke up to ensure filling of the middle ear cavity.
After two days, the animals received a second middle ear administration of sensorineurotrophic compound or vehicle together with neomycin. Solutions were prepared for the two groups of animals as follows:
Solution A: Neomycin was dissolved in sensorineurotrophic compound stock A described above. The final concentration of neomycin was 5 mg and the sensorineurotrophic compound concentration was 10 ng in a 100 μl vehicle solution.
Solution B: Neomycin was dissolved in sensorineurotrophic compound stock B described above. The final concentration of neomycin was 5 mg and the concentration of sensorineurotrophic compound was 1 ng in a 100 μl vehicle solution.
Solution C: Neomycin was dissolved in 20% Intralipid to a final concentration of 5 mg in 100 μl vehicle.
The plastic cover sheet on the bulla window was removed and the middle ear cavity was exposed. The old sensorineurotrophic compound or vehicle was sucked off and the old gelfoam was removed from the round window niche. A piece of gelfoam with fresh stock solution containing sensorineurotrophic compound and neomycin was administered to the round window niche, and the remaining solution (˜100 μl, solution A for the 10 ng dose group and solution B for the 1 ng dose group, respectively) was injected into the middle ear cavity of the right bulla.
Solution C (100 μl) was administered to the left ear for both groups in the same way.
Fourteen days after the second surgery, animals were perfused transcardially with a PBS flush followed by a fixative of 4% paraformaldehyde in 0.1M PBS. Immediately following the perfusion, the temporal bone was removed from the head. The bulla was opened and the cochlea was exposed. The apex was opened and the membrane of the round and oval windows was punched. The fixative solution was gently infused into the perilymphatic space through the apex hole and then allowed to flow out from windows. Then the cochleae were post-fixed in the same fixative solution for at least one day.
To identify and count hair cells in the organ of Corti, a direct immunostaining method was used to label the actin present naturally in the stereocilia bundles of the hair cells. The cochlea was dissected and the perilymphatic space was fully exposed. […]

In the case of `CCC(C)(C)C(=O)C(=O)N1CCC[C@H]1C(=O)OCCCc1cccnc1` [Compound I], the surviving hair cells [1] is reported as 41.4%, the “hair cells (protected) after neomycin” value (outer hair cells (OHC); 1 ng in the middle ear) is reported as roughly 70% and the “Neomycin-induced OHC Loss (%), Right (Treated), mean ± SEM” value (outer hair cells (OHC); 1 ng intramiddle ear, turn-1, n = 7) is reported as 8.85 ± 1.47%. The “Neomycin-induced OHC Loss (%), Right (Treated), mean ± SEM” value (outer hair cells (OHC); 1 ng intramiddle ear, turn-2, n = 7) was 4.01 ± 0.53%, the “Neomycin-induced OHC Loss (%), Right (Treated), mean ± SEM” value (outer hair cells (OHC); 1 ng intramiddle ear, turn-3, n = 7) was 0.92 ± 0.10% and the “Neomycin-induced OHC Loss (%), Right (Treated), mean ± SEM” value (outer hair cells (OHC); 1 ng intramiddle ear, turn-4, n = 7) was 1.67 ± 1.25%. The “Neomycin-induced OHC Loss (%), Right (Treated), mean ± SEM” value (outer hair cells (OHC); 1 ng intramiddle ear, whole cochlea, n = 7) was 3.86 ± 0.37%, the “hair cells (protected) after neomycin” value (outer hair cells (OHC); 10 ng in the middle ear) was “around 75%” and the “Neomycin-induced OHC Loss (%), Right (Treated), mean ± SEM” value (outer hair cells (OHC); 10 ng intramiddle ear, turn-1, n = 9) was 15.47 ± 6.05%. For the same molecule, the “Neomycin-induced OHC Loss (%), Right (Treated), mean ± SEM” value (outer hair cells (OHC); 10 ng intramiddle ear, turn-2, n = 9) was 13.93 ± 10.75%, the “Neomycin-induced OHC Loss (%), Right (Treated), mean ± SEM” value (outer hair cells (OHC); 10 ng intramiddle ear, turn-3, n = 9) was 11.64 ± 10.85% and the “Neomycin-induced OHC Loss (%), Right (Treated), mean ± SEM” value (outer hair cells (OHC); 10 ng intramiddle ear, turn-4, n = 9) was 4.69 ± 2.85%. The “Neomycin-induced OHC Loss (%), Right (Treated), mean ± SEM” value (outer hair cells (OHC); 10 ng intramiddle ear, whole cochlea, n = 9) was 11.44 ± 7.27%, the “protection of hair cells against ototoxicity, in words” value (outer hair cells (OHC); 10 ng or 1 ng in the middle ear, neomycin) was “protect completely hair cells against ototoxicity” and the “loss of hair cells, in words (FIGS. 4A and 4B)” value (outer hair cells (OHC); all animals at 1 ng, all but one at 10 ng, neomycin and vehicle: almost complete loss) was “very minimal loss of hair cells”.
